Numbers after ± are expanded uncertainties.
Assay: molar heat capacity at constant pressure; xn = mol fraction of the nth substance listed
Details: 102.6 kPa, Liquid, Large sample (1 g) DSC, x1 = 0.107

CCCCn1cc[n+](C)c1.F[P-](F)(F)(F)(F)F [1-butyl-3-methylimidazolium hexafluorophosphate] + CCO
Details | molar heat capacity at constant pressure [J/K/mol]
314.31 K | 176.72 ± 3
314.64 K | 177.08 ± 3
314.97 K | 177.44 ± 3.1
315.29 K | 177.86 ± 3.1
315.62 K | 178.15 ± 3.1
315.94 K | 178.8 ± 3.1
316.27 K | 179.08 ± 3.1
316.59 K | 179.58 ± 3.1
316.92 K | 179.87 ± 3.1
317.24 K | 180.44 ± 3.1
317.57 K | 180.87 ± 3.1
317.89 K | 181.23 ± 3.1
318.22 K | 181.8 ± 3.1
318.55 K | 182.3 ± 3.1
318.87 K | 182.66 ± 3.1
319.19 K | 183.3 ± 3.1
319.52 K | 183.87 ± 3.1
319.85 K | 184.38 ± 3.1
320.17 K | 184.88 ± 3.1
320.5 K | 185.38 ± 3.1
320.82 K | 186.02 ± 3.1
321.15 K | 186.45 ± 3.1
321.47 K | 187.09 ± 3.1
321.8 K | 187.95 ± 3.1
322.12 K | 188.6 ± 3.1
322.45 K | 189.38 ± 3.2
322.77 K | 190.17 ± 3.2
323.1 K | 190.89 ± 3.2
323.42 K | 191.96 ± 3.2
323.75 K | 192.96 ± 3.2
324.07 K | 194.61 ± 3.3
324.4 K | 195.89 ± 3.3
324.73 K | 198.26 ± 3.5
325.05 K | 201.76 ± 3.6
325.38 K | 205.34 ± 3.8
325.7 K | 210.28 ± 5.2
326.03 K | 181.08 ± 5.9
326.35 K | 178.08 ± 3.1
326.68 K | 176.79 ± 3.1
327 K | 175.93 ± 3.1
327.33 K | 175.36 ± 3.1
327.65 K | 174.93 ± 3.1
327.98 K | 174.57 ± 3.1
328.31 K | 174.36 ± 3.1
328.63 K | 174.29 ± 3.1
328.96 K | 174.07 ± 3.1
329.28 K | 173.93 ± 3.1
329.61 K | 173.79 ± 3.1
329.93 K | 173.72 ± 3.1
330.26 K | 173.64 ± 3.1
330.58 K | 173.57 ± 3.1
330.91 K | 173.5 ± 3.1
331.23 K | 173.43 ± 3.1
331.56 K | 173.43 ± 3.1
331.88 K | 173.43 ± 3.1
332.21 K | 173.43 ± 3.1
332.53 K | 173.29 ± 3.1
332.86 K | 173.43 ± 3.1
333.19 K | 173.43 ± 3.1
333.51 K | 173.43 ± 3.1
333.84 K | 173.36 ± 3.1
334.16 K | 173.5 ± 3.1
334.49 K | 173.57 ± 3.1
334.81 K | 173.72 ± 3.1
335.14 K | 173.86 ± 3.1
335.46 K | 174.22 ± 3.1
335.78 K | 173.72 ± 3.1
336.09 K | 173.29 ± 3.1
336.38 K | 173.07 ± 3.1
336.76 K | 172.93 ± 3.1
337.09 K | 172.79 ± 3.1
337.41 K | 173.5 ± 3.1
337.74 K | 174.07 ± 3.1
338.06 K | 174.07 ± 3.1
338.39 K | 174.14 ± 3.1
338.72 K | 174.43 ± 3.1
339.05 K | 174.22 ± 3.1
339.35 K | 174.07 ± 3.1
339.69 K | 174.72 ± 3.1
340.04 K | 174.72 ± 3.1
340.35 K | 175.07 ± 3.1
340.66 K | 175.58 ± 3.1
340.99 K | 175.29 ± 3.1
341.32 K | 175.07 ± 3.1
341.64 K | 175 ± 3.1
341.98 K | 175.29 ± 3.1
342.3 K | 174.93 ± 3.1
342.6 K | 175.58 ± 3.1

— the NIST ThermoML archive (doi:10.1016/j.jct.2017.07.014)
